Patent US10391100B2, “Combination of aurora kinase inhibitors and anti-CD20 antibodies” (Millennium Pharmaceuticals, Inc., priority 2008, dated 2019)
Marks after values point to notes of the source that are not given here.

What was measured:
Assay type in all cases: in vivo, human (in female SCID mice)
[1] = system: WSU-DLBCL2-Luc disseminated lymphoma; test: Disseminated WSU-DLBCL2-Luc lymphoma model, first study (QD dosing); conditions: for Median Survival / Maximum Percent Body Weight Change (%) / TGI Mean (%): 1st study; for Maximum Percent Body Weight Change (%) / TGI Mean (%): Day 21; for Pct Decrease in AUC Relative to Mean Vehicle AUC: first study, PO, QD, log10 photon flux vs day AUC, Days 0 through 21
Method: (§1) The Ly19-Luc, WSU-DLBCL2-Luc and PHTX-22-06 models described in these studies are human DLBCL cell lines, transfected with luciferase. These models were grown in immununocomprimised mice subcutaneously on the flank, or disseminated throughout the body by tail vain injection.
(§2) Two separate studies were conducted in the WSU-DLBCL2-luc model.

[2] = system: Ly19-Luc disseminated lymphoma; test: Disseminated Ly19-Luc lymphoma model, Experiment #1 (Example 4); conditions: for Maximum Percent Body Weight Change / TGI Mean / BW change (maximum body-weight change): Day 24; for TGI: calculated on Day 24; for number of mice remaining by the end of the study: Day 132
Method: (§3) The in vivo experiments using the disseminated Ly19-Luc lymphoma model were performed in duplicate. […] Tumor volumes were estimated once weekly throughout the inoculation and treatment period using the Xenogen IVIS® imaging system (Xenogen Corporation, Alameda, Calif.). To image the mice, an intraperitoneal (IP) injection of […] (15 mg/ml), was administered 10 minutes prior to procedure and mice were anesthetized with 2% isofluorane 2-5 minutes throughout the scanning procedure. For Xenogen imaging, each mouse was imaged on dorsal and ventral views. The sum of 2 photon flux measurements was used for the analysis.
The antitumor effects of each treatment group were determined by calculating the percent TGI ([Δ control mean tumor volume−Δ treated mean tumor volume]×100/Δ control mean tumor volume) at the end of treatment. Mice were weighed once weekly for the duration of the study and the maximal percent body weight change was determined during the treatment period. […] Animals were removed from the study when they reached humane endpoints (>20%, body weight loss or paralysis of either both front or hind limbs), the medial survival for each group was determined and the survival rate of treatment groups were compared to control. Treatment groups were evaluated to determine if the effects of combination treatment were synergistic, additive or sub-additive relative to control.
(§4) The photon flux data was log10 transformed, and these values over the treatment period were compared across treatment groups to assess if the differences in the trends over time were statistically significant. A mixed-effects linear regression model using a restricted maximum likelihood was fit to the data. An ANOVA test was performed to determine if there was a statistically significant difference between the treatment groups and control.
(§5) Log10-transformed fold change photon flux values (tumor burden) from baseline were also used to calculate AUC values for each animal. The AUC values from the mice in a given treatment group were then averaged together to generate mean AUC values and associated standard errors.
(§6) A synergy score calculation was used to address the question of whether the effects of the combination treatment were synergistic, additive, or sub-additive relative to the individual treatments.
(§7) To compare the tumor regrowth rates after stopping treatment, mixed-effects piecewise linear regression models were built separately for each treatment group with mice monitored beyond treatment period. All P-values <0.05 were called significant in this report.
(§8) The survival rates of the animals in each treatment group were plotted using Kaplan-Meier curves and the log rank test was used to compare survival rates among pairs of treatment groups.

[3] = system: Ly19 lymphoma (cell line Ly-19); test: Sub-cutaneous Ly19 lymphoma model, tumor volume (Example 1); conditions: for Pct Decrease in AUC Relative to Mean Vehicle AUC: Days 0 through 21; for Change in Slope: log tumor volume, slope (day 21 to 62) − slope (day 13 to 21)
Method: (§9) Tumor growth was monitored with vernier calipers. The mean tumor volume was calculated using the formula V=W^2×L/2.
P-values <0.05 were considered significant.

[4] = system: Ly19-Luc disseminated lymphoma; test: Disseminated Ly19-Luc lymphoma model, Experiment #2 (Example 4)
Method: as §3
The antitumor effects of each treatment group were determined by calculating the percent TGI ([Δ control mean tumor volume−Δ treated mean tumor volume]×100/Δ control mean tumor volume) at the end of treatment. Mice were weighed once weekly for the duration of the study and the maximal percent body weight change was determined during the treatment period. Animals were monitored for survival up to 132 days following treatment. Animals were removed from the study when they reached humane endpoints (>20%, body weight loss or paralysis of either both front or hind limbs), the medial survival for each group was determined and the survival rate of treatment groups were compared to control. Treatment groups were evaluated to determine if the effects of combination treatment were synergistic, additive or sub-additive relative to control.
as §4, §5, §6, §7, §8
Mice were dosed according to the following treatment groups:
Mice were weighed and tumor volumes were estimated with Xenogen signal (average photon flux) calculation once a week throughout the inoculation and the treatment period and after the treatment until the end of study.
Treatment started 7 days following the inoculation of tumor cells into the tail vein, with an average photon flux measurement of 1×10^7 on treatment Day 0.

[5] = system: primary diffuse large B-cell lymphoma PHTX-22-06; test: Sub-cutaneous primary diffuse large B-cell lymphoma model PHTX-22-06, tumor volume (Example 3); conditions: Compound III-1 20 mg/kg, PO, bid; Days 0 through 27
Method: Tumor growth was monitored with vernier calipers. The mean tumor volume was calculated using the formula V═W^2×L/2.
The animals were inoculated with 2×5 mm^3 tumor mass from primary […] tumor chunk at implant site Flank (trocar).
(§10) The statistical methodology used in these experiments was the same as that described in Example 1 above.

[6] = system: WSU-DLBCL2-Luc disseminated lymphoma; test: Disseminated WSU-DLBCL2-Luc lymphoma model, second study (BID dosing); conditions: for Median Survival / Maximum Percent Body Weight Change (%) / TGI Mean (%): 2nd study; for TGI Mean (%): Day 22; for number of mice remaining at the end of the study: Day 130; for Pct Decrease in AUC Relative to Mean Vehicle AUC: second study, PO, BID, log10 photon flux vs day AUC, Days 0 through 21
Method: as §1, §2

[7] = system: WSU-Luc lymphoma (cell line WSU-DLCL2); test: Subcutaneous WSU-Luc lymphoma model, tumor volume (Example 2); conditions: Compound III-1 3 mg/kg, PO, qd; Days 0 through 20
Method: as §9, §10

[8] = Compound III-1 3 mg/kg po/QD × 21 days
[9] = Compound III-1 10 mg/kg po/QD × 21 days
[10] = Compound III-1 3 mg/kg Po/QD × 21 days
[11] = Compound III-1 10 mg/kg Po/QD × 21 days
[12] = Compound III-1 3 mg/kg PO QD × 3 wks, Day 23
[13] = Compound III-1 10 mg/kg po/BID × 21 days
[14] = Compound III-1 20 mg/kg po/QD × 21 days (dose holiday Day 9 to Day 13)

## COc1cc(Nc2ncc3c(n2)-c2ccc(Cl)cc2C(c2c(F)cccc2OC)=NC3)ccc1C(=O)O [Compound III-1, 4-{[9-chloro-7-(2-fluoro-6-methoxyphenyl)-5H-pyrimido[5,4-d][2]benzazepin-2-yl]amino}-2-methoxybenzoic acid]
[1]; [8]
  Median Survival: 46.5 days
  Maximum Percent Body Weight Change (%): −3.1, Day 21%
  TGI Mean (%): 50.9, Day 21%
[1]; [9]
  Median Survival: 44 days
  Maximum Percent Body Weight Change (%): −4.5, Day 21%
  TGI Mean (%): 88.2, Day 21%
[1]; Compound III-1 alone 3 mg/kg QD
  TGI: 50.9%
[1]; Compound III-1 alone 10 mg/kg QD
  TGI: 88.2%
[1]; Compound III-1 3 mg/kg
  Pct Decrease in AUC Relative to Mean Vehicle AUC: 21.1%
[1]; Compound III-1 10 mg/kg
  Pct Decrease in AUC Relative to Mean Vehicle AUC: 42.0%
[2]; [10]
  Median Survival: 40 days
  Maximum Percent Body Weight Change: +6.2, Day 24%
  TGI Mean: 89.6, %
[2]; [8]
  Median Survival (Days): 40, p < 0.01^c Days
  BW change (maximum body-weight change): +6.2, Day 24%
  TGI: 89.6, p < 0.001%
[2]; [11]
  Median Survival: 63.5 days
  Maximum Percent Body Weight Change: +3.3, Day 24%
  TGI Mean: 100, %
[2]; [9]
  Median Survival (Days): 63.5, p < 0.01 Days
  BW change (maximum body-weight change): +3.3%, Day 24
  TGI: 100, p < 0.001%
[2]; Compound III-1 at 3 or 10 mg/kg on a QD schedule
  tolerability: well tolerated
[2]; single agent Compound III-1 3 mg/kg
  number of mice remaining by the end of the study: 1 out of 10
[2]; single agent Compound III-1 10 mg/kg
  number of mice remaining by the end of the study: 3 out of 10
[3]; Compound III-1 3 mg/kg qd
  Pct Decrease in AUC Relative to Mean Vehicle AUC: 22.9 Pct
[3]; Compound III-1 10 mg/kg bid
  Pct Decrease in AUC Relative to Mean Vehicle AUC: 105.6 Pct
  Change in Slope: 0.018
[3]; Compound III-1 10 mg/kg qd
  Pct Decrease in AUC Relative to Mean Vehicle AUC: 79.3 Pct
  Change in Slope: 0.040
[4]; Compound III-1 3 mg/kg PO QD × 3 wks, Day 0 (baseline)
  Mean BW Day 0: 19.2 g
[4]; Compound III-1 3 mg/kg PO QD × 3 wks, Day 22
  Maximum BW Change (%) Day 22: +3.1%
[4]; Compound III-1 3 mg/kg PO QD × 3 wks, Day 22, in g (unit assumed)
  Mean BW Day 22: 19.81
[4]; [12]
  Mean Photon Flux (Day 23): 2.34E+08
  TGI Day 23: 87.7%
[4]; Compound III-1 at 3 mg/kg on a QD schedule
  tolerability: well tolerated
[4]; log10 fold change photon flux vs day, up to Day 23, Compound III-1 3 mg/kg QD
  Mean AUC: 18.2
[5]
  Pct Decrease in AUC Relative to Mean Vehicle AUC: 79.3 Pct
[6]; [13]
  Median Survival: 70 days
  TGI Mean (%): 99.7, Day 22%
[6]; Compound III-1 10 mg/kg po/BID × 21 days, Day 19
  Maximum Percent Body Weight Change (%): −3.9, Day 19%
[6]; [14]
  Median Survival: 111.5 days
  TGI Mean (%): 99.7, Day 22%
[6]; Compound III-1 20 mg/kg po/QD × 21 days (dose holiday Day 9 to Day 13), Day 9
  Maximum Percent Body Weight Change (%): −8.9, Day 9%
[6]; Compound III-1 alone 10 mg/kg BID
  TGI: 99.7%
[6]; Compound III-1 alone 20 mg/kg BID
  TGI: 99.7%
[6]; Compound III-1 at 20 mg/kg BID, Day 9
  mean maximum body weight loss: 8.9%
[6]; 10 mg/kg single agent Compound III-1
  number of mice remaining at the end of the study: 1 out of 10
[6]; 20 mg/kg Compound III-1 single agent
  number of mice remaining at the end of the study: 5 out of 10
[6]; Compound III-1 10 mg/kg
  Pct Decrease in AUC Relative to Mean Vehicle AUC: 94.0%
[6]; Compound III-1 20 mg/kg
  Pct Decrease in AUC Relative to Mean Vehicle AUC: 96.6%
[7]
  Pct Decrease in AUC Relative to Mean Vehicle AUC: 19.4 Pct
